Data reported in BindingDB's records for doi:10.1016/j.bmcl.2003.11.032 (Abbott Laboratories, 2004).

Legend:
Histamine H3 receptor [1] = molecular target: Histamine H3 receptor (Rattus norvegicus, UniProt Q9QYN8); assay: Binding potency was determined by displacement of [3H]N-alpha-methyl histamine from histamine H3 receptor of rat cortical membranes
Histamine H3 receptor [2] = molecular target: Histamine H3 receptor (Homo sapiens, UniProt Q9Y5N1); assay: Binding potency was determined by displacement of [3H]N-alpha-methyl histamine from cloned human histamine H3 receptor expressed in C6 cells
Chain of Histamine H3 receptor (Homo sapiens, UniProt Q9Y5N1) (Q9Y5N1 whole entry): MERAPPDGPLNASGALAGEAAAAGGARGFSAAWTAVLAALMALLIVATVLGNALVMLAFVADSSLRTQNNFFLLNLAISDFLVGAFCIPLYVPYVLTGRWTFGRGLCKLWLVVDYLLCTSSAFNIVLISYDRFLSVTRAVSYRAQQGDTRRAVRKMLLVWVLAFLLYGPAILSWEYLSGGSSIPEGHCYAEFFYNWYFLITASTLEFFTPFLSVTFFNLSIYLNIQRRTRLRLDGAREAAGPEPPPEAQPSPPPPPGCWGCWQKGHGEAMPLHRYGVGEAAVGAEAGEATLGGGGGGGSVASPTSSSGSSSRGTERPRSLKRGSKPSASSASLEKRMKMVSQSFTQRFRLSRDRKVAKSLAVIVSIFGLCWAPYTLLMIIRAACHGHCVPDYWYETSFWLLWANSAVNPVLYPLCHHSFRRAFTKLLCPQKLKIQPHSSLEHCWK

Chain of Histamine H3 receptor (Rattus norvegicus, UniProt Q9QYN8) (Q9QYN8 whole entry): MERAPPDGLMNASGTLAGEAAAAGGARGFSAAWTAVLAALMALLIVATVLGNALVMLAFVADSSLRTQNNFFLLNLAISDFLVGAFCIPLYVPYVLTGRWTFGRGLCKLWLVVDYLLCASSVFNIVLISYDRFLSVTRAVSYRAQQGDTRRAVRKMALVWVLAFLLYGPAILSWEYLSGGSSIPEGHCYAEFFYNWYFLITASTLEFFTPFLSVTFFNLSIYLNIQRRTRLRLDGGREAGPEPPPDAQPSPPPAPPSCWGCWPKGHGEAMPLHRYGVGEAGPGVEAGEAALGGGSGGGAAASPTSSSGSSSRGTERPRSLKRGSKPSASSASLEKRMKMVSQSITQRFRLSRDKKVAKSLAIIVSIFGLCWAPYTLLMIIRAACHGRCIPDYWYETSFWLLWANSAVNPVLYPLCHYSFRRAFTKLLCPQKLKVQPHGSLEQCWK

Row | Ki (Histamine H3 receptor [1]) [nM] | Ki (Histamine H3 receptor [2]) [nM] | SMILES
1 | 13 |  | CC1CCCCN1CCc1cc2cc(-c3ccc(C(=O)N4CCOCC4)cc3)ccc2o1 (configuration not stated) [(4-{2-[2-(2-Methyl-piperidin-1-yl)-ethyl]-benzofuran-5-yl}-phenyl)-morpholin-4-yl-methanone]
2 |  | 13 | O=C(c1ccc(-c2ccc3oc(CCN4CCCCC4)cc3c2)nc1)N1CCOCC1 [Morpholin-4-yl-{6-[2-(2-piperidin-1-yl-ethyl)-benzofuran-5-yl]-pyridin-3-yl}-methanone]
